Measurements as given in publication PMC5826112, “Intrapulmonary Pharmacokinetics of Relebactam, a Novel β-Lactamase Inhibitor, Dosed in Combination with Imipenem-Cilastatin in Healthy Subjects” (Antimicrobial Agents and Chemotherapy, 2018).
Like-named read-outs stand apart in the source and are kept apart here.

Experiments:
[1] = no reference given; cited from earlier work
[2] = design: method as in data on file; settings: mice; ref data on file; cited from earlier work
[3] = Safety and tolerability in healthy subjects; format: in vivo, human (healthy subjects); settings: with imipenem-cilastatin
Text: The safety and tolerability of relebactam were monitored by clinical assessment of adverse events, measurement of vital signs, and performance of a physical examination, 12-lead electrocardiogram (ECG), and standard laboratory safety tests (hematology, chemistry, and urinalysis). Renal function (established by determination of serum/urine creatinine, serum urea, urine protein, and urine albumin concentrations) and hepatic function (established by determination of serum bilirubin, alanine aminotransferase, and aspartate aminotransferase concentrations) were carefully monitored during the study. The safety of bronchoscopy and BAL was monitored by clinical assessment, including continuous cardiac monitoring and repeated measurements of vital signs, according to the standard operating procedures at the study site. All data were analyzed according to the treatment actually received. Safety and tolerability were assessed in the all-subjects-as-treated (AST) population, defined as all subjects who received at least one dose of study drug.

[4] = design: method as in earlier work; settings: relebactam doses of 125 mg or higher; exceeds single-dose target; cited from earlier work
[5] = design: method as in earlier work; settings: cited from earlier work
[6] = design: method as in PMID 27503659, PMID 28575389; settings: coadministration with imipenem-cilastatin, phase 2 clinical studies; cited from earlier work
[7] = Relebactam population PK model (two-compartment plasma model with time-invariant ELF partition coefficient); format: in vivo, human (healthy subjects)
Method: Population PK analysis was conducted using NONMEM (version 7.3) software (ICON plc., Dublin, Ireland). The first-order conditional estimation with interaction (FOCEI) method was applied for parameter estimation. […] To elucidate the relationship between plasma and ELF concentrations, penetration into the ELF was explored using three approaches, each using a naive pooled data approach: (i) a three-compartment model with bidirectional mass transfer between the ELF compartment and the central volume, (ii) a time-invariant partition coefficient driven by the predicted unbound plasma concentration, and (iii) an effect compartment with an input rate constant driven by the concentration difference between the volume in the central compartment and the effect compartment.
The equations comprising the partition coefficient model are as follows: (1) dA1/dt=Q2/V2A2−Q2/V1A1−CL/V1A1 (2) dA2/dt=Q2/V1A1−Q2/V2A2 (3) CELF=kELF·fu,REL·A1/V1 where A1 is the amount of drug in the central compartment, A2 is the amount of drug in the peripheral compartment, CL is the plasma clearance, Q2 is the intercompartmental clearance, V1 is the volume of distribution in the central compartment, V2 is the volume of distribution in the peripheral compartment, CELF is the relebactam concentration in the ELF, fu,ELF is the free fraction of relebactam in plasma (∼80%), kELF is the partition coefficient for distribution into the ELF space, and t is time.
The free fraction in the ELF was assumed to be 100%. Different residual error models (additive, proportional, and combined) were tested for both the plasma and ELF concentrations of relebactam. Model development, including the selection of the structural and residual error model, was based upon the success of minimization, numerical comparison of the objective function values, the precision of the parameter estimates, and the generation of standard model diagnostic plots. The PK of imipenem were not modeled, as the lung penetration data from this study were previously described using a population PK approach ([21]).

Compound: O=C(NC1CCNCC1)[C@@H]1CC[C@@H]2CN1C(=O)N2OS(=O)(=O)O [relebactam]
- unbound in plasma (free fraction) [1]: ~80%
- penetration into the murine lung, ratio of total drug levels in the lung to total drug levels in plasma [2]: approximately 34%
- tolerability [3]: sufficiently well tolerated
- exposure (AUC0–∞) [4]: > 37.5 µM·h
- single-dose target (AUC0–∞) ([5]; derived from the target of 150 μM · h after four times daily dosing): 37.5 µM·h
- required exposure (AUC0–24) for efficacy ([5]; pulmonary infection model): 150 µM·h
- tolerability [6]: generally well tolerated
- Kp ([7]; human, ELF / unbound plasma, intravenous, driven by predicted unbound plasma concentration, read-out: Penetration coefficient for ELF (θkELF)): 0.553
- Kp ([7]; human, ELF/unbound plasma, intravenous, based on free drug levels, read-out: time-invariant partition coefficient (ELF) estimated by the model): 0.55
- clearance ([7]; human, plasma, intravenous, population PK structural model, read-out: Clearance (θCL) (converted)): 153 mL/min
- Vd ([7]; human, plasma, intravenous, population PK structural model, read-out: Volume of distribution in the central compartment (θVc)): 15.3 L
- Intercompartmental clearance (θQ2) ([7]; population PK structural model): 2.64 L/h
- Volume of distribution in the peripheral compartment (θVp) ([7]; population PK structural model): 10.6 L
